Measured values taken from patent US12539311B2, “Short-acting heparin-based anticoagulant compounds and methods” (The University of North Carolina at Chapel Hill, priority 2017, dated 2026).
Read-outs that look alike come from different tables or passages of the source. Each block holds one compound with its values, some of them ahead of it.

Key:
antithrombin (AT) [1] = target: T1, antithrombin (AT) (Homo sapiens, UniProt P01008); assay: AT-binding affinity analysis using isothermal titration calorimetry (ITC)
T1 sequence (P01008 33-464): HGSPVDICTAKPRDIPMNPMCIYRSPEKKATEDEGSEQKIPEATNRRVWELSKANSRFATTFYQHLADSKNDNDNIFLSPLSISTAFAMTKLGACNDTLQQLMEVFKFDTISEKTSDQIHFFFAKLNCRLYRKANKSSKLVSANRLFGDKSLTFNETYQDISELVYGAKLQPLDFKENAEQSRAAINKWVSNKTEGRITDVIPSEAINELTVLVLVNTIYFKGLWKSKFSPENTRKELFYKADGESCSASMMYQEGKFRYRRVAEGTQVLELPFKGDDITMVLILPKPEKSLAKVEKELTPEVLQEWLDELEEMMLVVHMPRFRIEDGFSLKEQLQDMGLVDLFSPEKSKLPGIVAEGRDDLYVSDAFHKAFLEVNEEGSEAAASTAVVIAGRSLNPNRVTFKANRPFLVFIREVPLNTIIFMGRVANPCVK

FXa = assay: Determination of anti-FXa effect in vivo; set-up: species or system Lewis rats; conditions: rat, intravenous; for persistence of anti-FXa effect in vivo: blood drawn 0.5-8 hours
Protocol: (§1) All studies were performed under an Institutional Animal Care and Use Committee (IACUC)-approved protocol at the University of North Carolina, following Public Health Service guidelines for laboratory animal care and use. Sixteen 400-g Lewis rats were equally divided into four groups. […] Blood was then drawn at specified time points (0.5, 1, 2, 4, 8 hours) after the compounds had been administered, with one sample taken just before administration. 0.8 mL of blood was drawn from the contralateral femoral/saphenous vein into 150 mM citrate at 0.5, 1, 2, 4 and 8 hours following injection of the compounds, with one sample drawn immediately prior to injection. The samples were centrifuged to obtain approximately 400 μL of plasma. The blood samples were subjected to FXa activity analysis. Saline was given periodically subcutaneously to maintain fluid volume.

[2] = Clearance of oligosaccharides from the drug-treated animals (plasma concentration against time); assay type: in vivo, Lewis rats
Protocol: as §1
Using a calibration curve generated for each compound, the concentration of compound in the reaction mixture was read off for each corresponding FXa activity percentage. The average plasma concentration and standard deviation between the 4 rats in each group were calculated for each time point; these values were used to plot a graph of plasma concentration against time.

platelet factor 4 = target: T2, platelet factor 4 (Homo sapiens, UniProt P02776); assay: Risk of heparin-induced thrombocytopenia (HIT) / binding to platelet factor 4; conditions: expected from size (smaller than 12-mers do not bind platelet factor 4)
T2 sequence (P02776 32-101): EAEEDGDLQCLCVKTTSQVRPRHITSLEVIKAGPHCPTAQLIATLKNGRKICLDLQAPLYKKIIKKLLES

antithrombin (AT) [3] = target: T1, antithrombin (AT); conditions: affinity coelectrophoresis, reported in a previous publication; read-out: Binding affinity (Kd) to AT; cited from earlier work
antithrombin (AT) [4] = target: T1, antithrombin (AT); conditions: reported in a previous publication, method not given, cited from earlier work

- Binding affinity (Kd) to AT (antithrombin (AT) [1]; ITC): No binding
SMILES: O=C(O)C1OC(OC2C(COS(=O)(=O)O)OC(OC3C(C(=O)O)OC(OC4C(COS(=O)(=O)O)OC(OC5C(C(=O)O)OC(Oc6ccc([N+](=O)[O-])cc6)C(O)C5O)C(NS(=O)(=O)O)C4OS(=O)(=O)O)C(OS(=O)(=O)O)C3O)C(NS(=O)(=O)O)C2O)C(O)C(O)C1OC1OC(COS(=O)(=O)O)C(O)C(O)C1NS(=O)(=O)O (centres unmarked) [Comp 2, GlcNS6S-GlcA-GlcNS6S-IdoA2S-GlcNS3S6S-GlcA-pNP]

- Binding affinity (Kd) to AT (antithrombin (AT) [1]; ITC): No binding^c
SMILES: O=C(O)C1OC(OC2C(CO)OC(OC3C(C(=O)O)OC(OC4C(CO)OC(OC5C(C(=O)O)OC(OC6C(CO)OC(OC7C(C(=O)O)OC(Oc8ccc([N+](=O)[O-])cc8)C(O)C7O)C(NS(=O)(=O)O)C6O)C(OS(=O)(=O)O)C5O)C(NS(=O)(=O)O)C4OS(=O)(=O)O)C(OS(=O)(=O)O)C3O)C(NS(=O)(=O)O)C2O)C(O)C(O)C1OC1OC(CO)C(O)C(O)C1NS(=O)(=O)O (centres unmarked) [Comp 4]

- Kd (antithrombin (AT) [1]; ITC): 5.1 ± 1.4 nM
- binding to AT (in words) (antithrombin (AT) [1]; listed as Compound 5): binds to AT
- binding to AT (in words) (antithrombin (AT) [1]; listed as compound 5): binds to AT tightly
- clearance rate faster than that of fondaparinux ([2]; in a rat or mouse model): at least 50%
- risk of HIT (platelet factor 4): very low risk of HIT
SMILES: O=C(O)C1OC(OC2C(COS(=O)(=O)O)OC(OC3C(C(=O)O)OC(OC4C(COS(=O)(=O)O)OC(OC5C(C(=O)O)OC(OC6C(COS(=O)(=O)O)OC(OC7C(C(=O)O)OC(Oc8ccc([N+](=O)[O-])cc8)C(O)C7O)C(NS(=O)(=O)O)C6O)C(OS(=O)(=O)O)C5O)C(NS(=O)(=O)O)C4OS(=O)(=O)O)C(OS(=O)(=O)O)C3O)C(NS(=O)(=O)O)C2O)C(O)C(O)C1OC1OC(COS(=O)(=O)O)C(O)C(O)C1NS(=O)(=O)O (centres unmarked) [Comp 5]
- persistence of anti-FXa effect in vivo (FXa): diminished after 4 hours
- anti-FXa potency in vivo (FXa; within 30 min after administration): comparable anti-FXa potency to that of fondaparinux and compound 11
- clearance in vivo (in words) ([2]; rat, compared with fondaparinux and compound 11): cleared faster from the animal in the first 2 hours

SMILES: CC(=O)NC1C(OC2C(C(=O)O)OC(OC3C(COS(=O)(=O)O)OC(OC4C(C(=O)O)OC(OC5C(COS(=O)(=O)O)OC(OC6C(C(=O)O)OC(OC7C(COS(=O)(=O)O)OC(OC8C(C(=O)O)OC(Oc9ccc([N+](=O)[O-])cc9)C(O)C8O)C(NS(=O)(=O)O)C7O)C(OS(=O)(=O)O)C6O)C(NS(=O)(=O)O)C5O)C(OS(=O)(=O)O)C4O)C(NS(=O)(=O)O)C3OS(=O)(=O)O)C(O)C2O)OC(COS(=O)(=O)O)C(O)C1O (centres unmarked) [Comp 11, reference compound]
- persistence of anti-FXa effect in vivo (FXa): persisted after 8 hours
- Kd (antithrombin (AT) [3]): 8 ± 3 nM

SMILES: O=C(O)C1OC(OC2C(COS(=O)(=O)O)OC(OC3C(C(=O)O)OC(OC4C(COS(=O)(=O)O)OC(OC5C(C(=O)O)OC(Oc6ccc([N+](=O)[O-])cc6)C(O)C5O)C(NS(=O)(=O)O)C4O)C(OS(=O)(=O)O)C3O)C(NS(=O)(=O)O)C2OS(=O)(=O)O)C(O)C(O)C1OC1OC(COS(=O)(=O)O)C(O)C(O)C1NS(=O)(=O)O (centres unmarked) [GlcA2S-containing 6-mer, GlcNS6S-GlcA-GlcNS3S6S-GlcA2S-GlcNS6S-GlcA-pNP]
- Binding affinity (Kd) to AT (antithrombin (AT) [4]): No binding^d

SMILES: O=C(O)C1OC(OC2C(COS(=O)(=O)O)OC(OC3C(C(=O)O)OC(OC4C(COS(=O)(=O)O)OC(OC5C(C(=O)O)OC(Oc6ccc([N+](=O)[O-])cc6)C(O)C5O)C(NS(=O)(=O)O)C4O)C(O)C3O)C(NS(=O)(=O)O)C2OS(=O)(=O)O)C(O)C(O)C1OC1OC(COS(=O)(=O)O)C(O)C(O)C1NS(=O)(=O)O (centres unmarked) [IdoA-containing 6-mer]
- Kd (antithrombin (AT) [4]; read-out: Binding affinity (Kd) to AT): 32.6 ± 5.3 nM
